pIC50: −log10 of the molar value.
Target: T1, Bromodomain-containing protein 9 (Homo sapiens, UniProt Q9H8M2)
T1 sequence (Q9H8M2 whole entry): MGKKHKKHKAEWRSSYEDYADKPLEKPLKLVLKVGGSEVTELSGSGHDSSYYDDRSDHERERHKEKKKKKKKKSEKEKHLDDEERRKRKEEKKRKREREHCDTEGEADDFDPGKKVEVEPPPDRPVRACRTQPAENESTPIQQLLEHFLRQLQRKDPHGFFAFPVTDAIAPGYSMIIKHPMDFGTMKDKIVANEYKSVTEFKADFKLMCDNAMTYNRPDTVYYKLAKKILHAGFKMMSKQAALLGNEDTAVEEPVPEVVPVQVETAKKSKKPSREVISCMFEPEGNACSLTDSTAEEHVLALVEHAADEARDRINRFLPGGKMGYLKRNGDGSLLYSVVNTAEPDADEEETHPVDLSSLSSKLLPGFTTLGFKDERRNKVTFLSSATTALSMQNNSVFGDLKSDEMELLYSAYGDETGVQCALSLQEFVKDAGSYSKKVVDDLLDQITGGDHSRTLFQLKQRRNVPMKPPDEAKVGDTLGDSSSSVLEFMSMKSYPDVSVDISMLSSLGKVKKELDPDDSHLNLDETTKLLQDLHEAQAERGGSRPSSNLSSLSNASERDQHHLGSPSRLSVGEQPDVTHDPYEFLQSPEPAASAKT
Test: After 20 minutes incubation at room temperature AlphaLisa Streptavidin Acceptor Beads (Perkin-AL125C) and AlphaLisa Nickel donor beads (Perkin AS 10 ID) were added to a final concentration of 15 ug/mL each.

## CC(C)n1cc(-c2ccc(C(C)(C)O)cc2)c2cc[nH]c2c1=O
  pIC50: 5.39

From ChEMBL document CHEMBL5726007, “Therapeutic compounds and uses thereof” (2018)
